Results on 13 compounds are retold here after ChEMBL document CHEMBL1149860, “Synthesis and neuropharmacological characterization of 2-O-substituted apomorphines” (Bioorg Med Chem, 2008).

SMILES strings stand for the structures.

The target of one experiment is D(1A) dopamine receptor (Mus musculus, UniProt Q61616). Nature of the experiment: Displacement of [3H]SCH23390 from dopamine D1 receptor in mouse Ltk- fibroblast cells. The experiment is classed as cell-based.
Experiment [1] concerns the target D(2) dopamine receptor (Rattus norvegicus) (UniProt P61169). Nature of the experiment: Agonist activity at rat dopamine D2(short) receptor expressed in CHOK1 cells by [35S]GTPgammaS binding assay relative to quinpirole. In kind it is functional, cell-based. The settings on record: CHO-K1. In general terms: GTPγS resists hydrolysis and so accumulates on activated G proteins.

The target of experiment [2] is T1, D(2) dopamine receptor (Rattus norvegicus, UniProt P61169). Briefly: Displacement of [3H]raclopride from rat dopamine D2(short) receptor expressed in CHOK1 cells. In kind it is cell-based, CHO-K1. On the technique in general: Displacement assays read how much labelled ligand stays bound in the presence of the test substance.
The target in experiment [3] is T1, D(2) dopamine receptor. Nature of the experiment: Agonist activity at rat dopamine D2(short) receptor expressed in CHOK1 cells by [35S]GTPgammaS binding assay. In kind it is functional, cell-based, CHO-K1.
Experiment [4] addresses D(2) dopamine receptor (Homo sapiens, UniProt P14416). Briefly: biochemical.
Description: Displacement of [3H]raclopride from human cloned dopamine D2 receptor expressed in CHO cell membrane
In experiment [5] the target is T1, D(2) dopamine receptor. Nature of the experiment: Displacement of [3H]raclopride from dopamine D2 receptor in rat striatal membrane. The experiment is classed as cell membranes, Striatum.

D(1A) dopamine receptor, sequence (Q61616 whole entry): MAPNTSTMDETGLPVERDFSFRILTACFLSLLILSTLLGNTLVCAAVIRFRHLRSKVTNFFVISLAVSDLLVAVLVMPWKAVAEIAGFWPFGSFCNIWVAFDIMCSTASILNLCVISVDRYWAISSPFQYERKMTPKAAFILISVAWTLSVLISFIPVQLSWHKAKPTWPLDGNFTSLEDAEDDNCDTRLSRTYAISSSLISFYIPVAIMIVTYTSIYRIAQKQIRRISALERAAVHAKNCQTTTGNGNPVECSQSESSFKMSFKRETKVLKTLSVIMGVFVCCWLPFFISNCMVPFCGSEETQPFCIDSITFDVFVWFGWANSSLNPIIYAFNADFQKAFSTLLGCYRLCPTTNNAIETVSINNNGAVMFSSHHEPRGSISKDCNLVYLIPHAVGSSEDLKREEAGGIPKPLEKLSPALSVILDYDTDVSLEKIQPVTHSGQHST
D(2) dopamine receptor (Rattus norvegicus), sequence (P61169 whole entry): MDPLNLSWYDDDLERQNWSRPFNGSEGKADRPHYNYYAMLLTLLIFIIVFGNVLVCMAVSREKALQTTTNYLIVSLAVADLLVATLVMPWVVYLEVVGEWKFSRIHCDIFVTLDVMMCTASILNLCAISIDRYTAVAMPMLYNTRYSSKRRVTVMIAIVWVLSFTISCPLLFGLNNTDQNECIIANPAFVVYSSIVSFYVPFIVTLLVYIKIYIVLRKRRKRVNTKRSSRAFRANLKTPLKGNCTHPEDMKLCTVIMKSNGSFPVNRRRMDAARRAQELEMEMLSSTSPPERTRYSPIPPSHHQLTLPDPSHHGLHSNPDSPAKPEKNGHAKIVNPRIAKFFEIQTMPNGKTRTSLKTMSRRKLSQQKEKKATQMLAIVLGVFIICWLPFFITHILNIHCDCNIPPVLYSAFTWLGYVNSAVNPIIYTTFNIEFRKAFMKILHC
T1 sequence (P61169 whole entry): as above
D(2) dopamine receptor (Homo sapiens, UniProt P14416), sequence (P14416 whole entry): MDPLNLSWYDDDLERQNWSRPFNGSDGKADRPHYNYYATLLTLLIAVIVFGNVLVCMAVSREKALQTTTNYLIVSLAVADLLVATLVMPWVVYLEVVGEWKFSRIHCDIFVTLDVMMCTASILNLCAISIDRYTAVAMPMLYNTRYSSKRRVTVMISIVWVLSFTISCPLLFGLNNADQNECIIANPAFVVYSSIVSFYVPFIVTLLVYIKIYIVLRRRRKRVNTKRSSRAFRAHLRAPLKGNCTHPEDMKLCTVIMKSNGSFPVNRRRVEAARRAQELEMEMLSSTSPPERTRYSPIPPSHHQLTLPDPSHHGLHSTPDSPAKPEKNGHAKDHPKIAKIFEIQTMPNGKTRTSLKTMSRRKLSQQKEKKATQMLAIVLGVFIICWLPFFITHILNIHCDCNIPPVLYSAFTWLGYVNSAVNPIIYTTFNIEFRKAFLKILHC

A word on the Ki: it is a measure of affinity in units of concentration, obtained from inhibition or displacement. A high value points to a looser hold on the target. What is called EC50 is the concentration giving half of the maximal effect. A lower EC50 goes with an effect from little substance. Turning to `CCOc1cc2c3c(c1)-c1c(ccc(O)c1O)C[C@H]3N(C)CC2`, the results for the inhibition constant Ki at D(1A) dopamine receptor and at D(2) dopamine receptor [2] were 2900 nM and 44 nM, respectively. The same compound came in with an Efficacy in experiment [1] of 70%. Moreover, the EC50 on D(2) dopamine receptor [3] is 55 nM.
As to `CN1CCc2cc(-c3ccccc3)cc3c2[C@H]1Cc1ccc(O)c(O)c1-3`, on D(2) dopamine receptor [4], the affinity corresponds to a Ki of 88 nM.
At D(2) dopamine receptor [5], `CN1CCc2cc(F)cc3c2[C@H]1Cc1ccc(O)c(O)c1-3` returned a Ki of 0.43 nM.
For the compound `CN1CCc2cc(OCCO)cc3c2[C@H]1Cc1ccc(O)c(O)c1-3`, the Ki at D(1A) dopamine receptor was found to be 5300 nM; on D(2) dopamine receptor [2], 347 nM. This compound also had an Efficacy in experiment [1] of 19%. On D(2) dopamine receptor [3], this compound came in with an EC50 of 315 nM.
Consider `CSc1cc2c3c(c1)-c1c(ccc(O)c1O)C[C@H]3N(C)CC2`, for which the Ki on D(2) dopamine receptor [5] was found to be 54.7 nM.
Turning to `CN1CCc2cc(OCCOc3cc4c5c(c3)-c3c(ccc(O)c3O)C[C@H]5N(C)CC4)cc3c2[C@H]1Cc1ccc(O)c(O)c1-3`, the inhibitory constant (Ki) at D(1A) dopamine receptor worked out at 5200 nM; on D(2) dopamine receptor [2], 345 nM. The compound further returned an Efficacy in experiment [1] of 18%. It took 308 nM to reach a half-maximal effect at D(2) dopamine receptor [3] (EC50).
`CN1CCc2cc(OCCOCCOc3cc4c5c(c3)-c3c(ccc(O)c3O)C[C@H]5N(C)CC4)cc3c2[C@H]1Cc1ccc(O)c(O)c1-3`: the values for the Ki on D(1A) dopamine receptor and on D(2) dopamine receptor [2] were more than 10000 nM and 17200 nM, respectively. For the same compound, the EC50 at D(2) dopamine receptor [3] is more than 10000 nM.
For the compound `CCCOc1cc2c3c(c1)-c1c(ccc(O)c1O)C[C@H]3N(C)CC2`, the inhibition constant (Ki) stood at 3500 nM on D(1A) dopamine receptor and 75 nM at D(2) dopamine receptor [2]. This compound also had an Efficacy in experiment [1] of 71%. This compound also yielded a concentration for a half-maximal effect (EC50) on D(2) dopamine receptor [3] of 76 nM.
On to `CN1CCc2cc(-c3ccc(O)cc3)cc3c2[C@H]1Cc1ccc(O)c(O)c1-3`, for which, at D(2) dopamine receptor [4], the affinity corresponds to a Ki of 3.8 nM.
With `CCCCOc1cc2c3c(c1)-c1c(ccc(O)c1O)C[C@H]3N(C)CC2`, the figures for the Ki at D(1A) dopamine receptor and at D(2) dopamine receptor [2] were 2100 nM and 60 nM, respectively. In addition, in experiment [1], the Efficacy is 57%. The concentration for a half-maximal effect (EC50) on D(2) dopamine receptor [3] was 58 nM.
In the case of `COc1cc2c3c(c1)-c1c(ccc(O)c1O)CC3N(C)CC2` (stereo unspecified), the Ki turned out to be 2600 nM on D(1A) dopamine receptor and 74 nM on D(2) dopamine receptor [2]. Also, the Efficacy in experiment [1] is 66%. In addition, the half-maximal effective concentration (EC50) on D(2) dopamine receptor [3] is 114 nM.
Regarding `CN1CCc2cc(N)cc3c2[C@H]1Cc1ccc(O)c(O)c1-3`, the Ki at D(2) dopamine receptor [5] stood at 19.9 nM.
As to `CN1CCc2cc(OCCOCCO)cc3c2[C@H]1Cc1ccc(O)c(O)c1-3`, the Ki turned out to be 7600 nM at D(1A) dopamine receptor and 587 nM on D(2) dopamine receptor [2]. Moreover, in experiment [1], the Efficacy stood at 58%. A half-maximal effect at D(2) dopamine receptor [3] (EC50) was put at 939 nM.
